{
  "source": "patent US20230302036A1",
  "about": "“COMPOSITIONS FOR TREATMENT OF SPINAL MUSCULAR ATROPHY” (priority 2020, published 2023)",
  "key": {"[1]": {"tested_on": "endogenous SMN2 E7 alternative splicing", "assay": "SMN2 E7 alternative splicing by radioactive RT-PCR in HEK293T cells", "assay_type": "cell-based, human", "conditions": "for effect on SMN2 E7 inclusion, agent alone: 25 nM ASO, 3 µM TSA 24 hr, 3 µM CPT; for effect on SMN2 E7 inclusion, agent alone / effect of the drug on ASO1's effect on E7 inclusion: 25 µM 5-AZA 48 hr; for effect of the drug on ASO1's effect on E7 inclusion: HEK293T transfected with 25 nM ASO1, increasing doses of TSA 24 hr", "protocol": "Alternative splicing was analyzed by radioactive RT-PCR followed by native polyacrylamide gel electrophoresis and autoradiography. Bars display means ± SD of percentage of the radioactivity in the FL band over the sum of radioactivity measurements in the FL and ΔE7 bands of at least three independent transfection experiments. A two-tailed Student’s t test was used to determine the significance between events. (FIG. 1A) HEK293T cells were co-transfected with the SMN2 minigene and expression vectors for WT^res and hC4 Pol II, followed by addition of α-amanitin. (FIG. 1B) Effect of camptothecin (CPT) on SMN2 E7 alternative splicing. HEK293T cells were incubated for at least 6 hours with 3 µM CPT. Combined effects on endogenous SMN2 E7 alternative splicing of transfection with 25 nM ASO1 and treatment with 3 µM TSA for 24 hr (FIG. 1C), 10 mM VPA for 24 hr (FIG. 1D), or 25 µM 5-AZA for 48 hr (FIG. 1E). Combined effects on HEK293T endogenous SMN2 E7 alternative splicing of transfection with 25 nM each of si-hnRNPA1 and si-hnRNPA2, and treatment with 3 µM TSA for 24 hr (FIG. 1F) or 10 mM VPA for 24 hr (FIG. 1G). […]\nHEK293T, HeLa, and SMA type I homozygous and carrier fibroblasts 3813 and 3814 (Coriell Cell Repositories, Camden, New Jersey, United States) were grown in Dulbecco’s modified Eagle’s medium (DMEM) containing 4.5 g of glucose and 10% fetal bovine serum (Gibco) at 37° C. Cells were plated at a density of 2×10^5 cells per well in 12-well plates 24 hr before transfection. siRNA (25 nM), plasmid (500 ng), or ASO (25 nM) transfections were performed 24 hr after cells were plated, using 3 µl of Lipofectamine 2000 (Thermo Fisher Scientific) per well in 12-well plates. 24-48 h later, cells were treated with Trichostatin A (Sigma, T8552), Valproic Acid (Sigma, P4543), 5-Azacytidine (Sigma, A2385) or vehicle for the indicated time, and harvested for downstream procedures. […]"}, "[2]": {"tested_on": "H3K9me2 along the SMN2 gene", "assay": "ChIP-qPCR of H3K9me2 distribution along the SMN2 gene in HEK293T cells", "assay_type": "cell-based, human", "conditions": "HEK293T; ASO transfection or 10 mM VPA", "description": "(§3) H3K9me2 (FIG. 2B), total RNAPII (FIG. 2C), P-Ser5 RNAPII (FIG. 2D), and P-Ser2 RNAPII (FIG. 2E) distribution along the SMN2 gene, assessed by ChIP-qPCR in HEK293T cells transfected with the scramble oligo (CTRL) or ASO1 and treated with 10 mM VPA. Four independent immunoprecipitation replicates were conducted per experiment. Data are represented as mean ± S.D. (n = 4, *p < 0.05, two-tailed Student’s t test).\n(§4) Total distribution of H3K9me2 (FIG. 3C), total RNAPII (FIG. 3D), P-Ser5 RNAPII (FIG. 3E), and P-Ser2 RNAPII (FIG. 3F) along the SMN2 gene is shown. This distribution was assessed by ChIP-qPCR in HEK293T cells transfected with the scramble oligo (CTRL) or ASO2 and treated with 10 mM VPA. Four independent immunoprecipitation replicates were conducted per experiment. Data are represented as mean ± S.D. (n = 4, *p < 0.05, two-tailed Student’s t test).\nApproximately 2×10^6 HEK293T cells per sample were treated for 10 min in 1% (v/v) formaldehyde at room temperature to crosslink protein-DNA complexes. Crosslinking was stopped with glycine at a final concentration of 125 mM. Cells were washed twice with cold PBS and swelled on ice for 10 min in 25 mM HEPES pH 8, 1.5 mM MgCl2, 10 mM KCl, 0.1% NP-40, 1 mM DTT and 1× protease inhibitor cocktail set III (Calbiochem). Following Dounce homogenization, the nuclei were collected and resuspended in 1 ml sonication buffer (50 mM HEPES pH 8, 140 mM NaCl, 1 mM EDTA, 0.1% sodium deoxycholate, 0.1% SDS and 1× protease inhibitor cocktail). DNA was sonicated in an ultrasonic bath (Bioruptor Diagenode) to an average length of 200-500 bp. After addition of 1% (v/v) Triton X-100, samples were centrifuged at 15,000 ×g. Supernatants were immunoprecipitated O/N with 40 µl of pre-coated anti-IgG magnetic beads (Dynabeads M-280, Invitrogen) previously incubated with the antibody of interest for 6 hr at 4° C. The antibodies used were: rabbit anti-H3 (2 µg, Abcam ab1791), mouse anti-H3K9me2 (4 µg, Abcam ab1220), rabbit anti H3K9me3 (4 µg, Abcam ab8898), rabbit anti H3K9Ac (2 µg, Abcam ab4441), rabbit anti Rpb1 NTD (2 µg, Cell Signaling, D8L4Y), rabbit Phospho-Rpb1 CTD Ser2 (2 µg, Cell Signaling, E1Z3G), rabbit Phospho-Rpb1 CTD Ser5 (2 µg, Cell Signaling, D9N5I). Control immunoprecipitations were performed with rabbit IgG (1 µg, Abcam ab171870). […] Immunoprecipitated DNA (1.5 µl) and serial dilutions of the 10% input DNA (1:4, 1:20, 1: 100, and 1:500) were analyzed by SYBR-Green real-time qPCR."}, "[3]": {"tested_on": "RNAPII (total, P-Ser5, P-Ser2) along the SMN2 gene", "assay": "ChIP-qPCR of RNAPII distribution along the SMN2 gene in HEK293T cells", "assay_type": "cell-based, human", "conditions": "ASO transfection vs scramble", "description": "as §3, §4\nApproximately 2×10^6 HEK293T cells per sample were treated for 10 min in 1% (v/v) formaldehyde at room temperature to crosslink protein-DNA complexes. Crosslinking was stopped with glycine at a final concentration of 125 mM. Cells were washed twice with cold PBS and swelled on ice for 10 min in 25 mM HEPES pH 8, 1.5 mM MgCl2, 10 mM KCl, 0.1% NP-40, 1 mM DTT and 1× protease inhibitor cocktail set III (Calbiochem). Following Dounce homogenization, the nuclei were collected and resuspended in 1 ml sonication buffer (50 mM HEPES pH 8, 140 mM NaCl, 1 mM EDTA, 0.1% sodium deoxycholate, 0.1% SDS and 1× protease inhibitor cocktail). DNA was sonicated in an ultrasonic bath (Bioruptor Diagenode) to an average length of 200-500 bp. After addition of 1% (v/v) Triton X-100, samples were centrifuged at 15,000 ×g. Supernatants were immunoprecipitated O/N with 40 µl of pre-coated anti-IgG magnetic beads (Dynabeads M-280, Invitrogen) previously incubated with the antibody of interest for 6 hr at 4° C. The antibodies used were: rabbit anti-H3 (2 µg, Abcam ab1791), mouse anti-H3K9me2 (4 µg, Abcam ab1220), rabbit anti H3K9me3 (4 µg, Abcam ab8898), rabbit anti H3K9Ac (2 µg, Abcam ab4441), rabbit anti Rpb1 NTD (2 µg, Cell Signaling, D8L4Y), rabbit Phospho-Rpb1 CTD Ser2 (2 µg, Cell Signaling, E1Z3G), rabbit Phospho-Rpb1 CTD Ser5 (2 µg, Cell Signaling, D9N5I). Control immunoprecipitations were performed with rabbit IgG (1 µg, Abcam ab171870). Beads were washed sequentially for 5 min each in Low-salt (20 mM Tris-HCl pH 8, 150 mM NaCl, 2 mM EDTA, 1% Triton X-100, 0.1% SDS), High-Salt (20 mM Tris-HCl pH 8, 500 mM NaCl, 2 mM EDTA, 1% Triton X-100, 0.1% SDS) and LiCl buffer (10 mM Tris pH 8.0, 1 mM EDTA, 250 mM LiCl, 1% NP-40, 1% Na-deoxycholate) for 5 min at 4° C. and then twice in TE 1x for 2 min at room temperature. Beads were eluted in 1% SDS and 100 mM NaHCO3 buffer for 15 min at 65° C. and crosslinking was reversed for 6 hr after addition of NaCl to a final concentration of 200 mM. Chromatin was precipitated with ethanol overnight, treated with 20 µg proteinase K, and purified by phenol-chloroform extraction. Immunoprecipitated DNA (1.5 µl) and serial dilutions of the 10% input DNA (1:4, 1:20, 1: 100, and 1:500) were analyzed by SYBR-Green real-time qPCR."}, "[4]": {"tested_on": "H3K9me2 along SERF1A, MYOD, GAPDH", "assay": "Specificity control ChIP-qPCR of H3K9me2 on SERF1A, MYOD and GAPDH in HEK293T cells", "assay_type": "cell-based, human", "protocol": "FIGS. 6A-6D show antisense oligonucleotides and their effects on chromatin. […] Uppercase, exonic nucleotide sequence. Lowercase, intronic sequences. Upstream highlight, binding site for ASO1. Downstream highlight, binding site for ASO2. Levels of H3K9me2 deposition along small EDRK-rich factor 1A (SERF1A, upstream of SMN2) (FIG. 6B), Myoblast Determination Protein (MYOD) (FIG. 6C), and Glyceraldehyde 3-phosphate dehydrogenase (GAPDH) (FIG. 6D), were assessed by ChIP-qPCR in HEK293T cells. Data represented as mean ± S.D. (n = 4, *p < 0.05, two-tailed Student’s t test).\nApproximately 2×10^6 HEK293T cells per sample were treated for 10 min in 1% (v/v) formaldehyde at room temperature to crosslink protein-DNA complexes. Crosslinking was stopped with glycine at a final concentration of 125 mM. Cells were washed twice with cold PBS and swelled on ice for 10 min in 25 mM HEPES pH 8, 1.5 mM MgCl2, 10 mM KCl, 0.1% NP-40, 1 mM DTT and 1× protease inhibitor cocktail set III (Calbiochem). Following Dounce homogenization, the nuclei were collected and resuspended in 1 ml sonication buffer (50 mM HEPES pH 8, 140 mM NaCl, 1 mM EDTA, 0.1% sodium deoxycholate, 0.1% SDS and 1× protease inhibitor cocktail). […] Immunoprecipitated DNA (1.5 µl) and serial dilutions of the 10% input DNA (1:4, 1:20, 1: 100, and 1:500) were analyzed by SYBR-Green real-time qPCR."}, "SMN2 E7": {"tested_on": "SMN2 E7", "conditions": "saturating doses; cited from earlier work"}, "[5]": {"tested_on": "endogenous SMN2 E7 alternative splicing in HeLa cells", "assay": "SMN2 E7 alternative splicing by radioactive RT-PCR in HeLa cells", "assay_type": "cell-based, human", "conditions": "10 nM ASO1 and 3 µM TSA 24 hr", "protocol": "(§1) Combined effects on endogenous SMN2 E7 alternative splicing in transfected (FIG. 5A) HEK293T cells with 25 nM ASO1 and increasing doses of TSA for 24 hr, (FIG. 5B) HeLa cells with 10 nM ASO1 and 3 µM TSA for 24 hr., and (FIG. 5C) SMA patient fibroblasts (3813) with 10 nM ASO1 and 3 µM TSA for 24 hr. Bars display means ± SD of percentage of the radioactivity in the FL band over the sum of radioactivity measurements in the FL and ΔE7 bands of at least three independent transfection experiments. (FIG. 5D and FIG. 5E) Transcriptional activation was assessed by RT-qPCR. (FIG. 5F) HEK293T cells with 3 nM ASO1 and 10 mM VPA for 24 hr. Bars indicate mean transcriptional activation ± SD ratios between precursors of SMN2 and GAPDH as the control gene. Statistical significance was analyzed by two-tailed Student’s t-tests. P < 0.05 was considered statistically significant.\n(§2) HEK293T, HeLa, and SMA type I homozygous and carrier fibroblasts 3813 and 3814 (Coriell Cell Repositories, Camden, New Jersey, United States) were grown in Dulbecco’s modified Eagle’s medium (DMEM) containing 4.5 g of glucose and 10% fetal bovine serum (Gibco) at 37° C. […]"}, "[6]": {"tested_on": "endogenous SMN2 E7 alternative splicing in SMA patient fibroblasts", "assay": "SMN2 E7 alternative splicing by radioactive RT-PCR in SMA patient fibroblasts (3813)", "assay_type": "cell-based, human", "conditions": "10 nM ASO1 and 3 µM TSA 24 hr", "protocol": "as §1, §2"}, "SMN2 pre-mRNA": {"tested_on": "SMN2 pre-mRNA", "assay": "Transcriptional activation by RT-qPCR of SMN2 pre-mRNA in HEK293T cells", "assay_type": "cell-based, human", "conditions": "HDAC inhibitor alone"}},
  "note": "Oligonucleotides are written 5' to 3', each unit as a sugar letter and its base; * is a phosphorothioate linkage, no mark a phosphodiester; rarer units and linkages stand in square brackets, end groups in braces. Plain capitals give the bases only. e = 2'-O-(2-methoxyethyl) (MOE); [5mC] = 5-methylcytosine",
  "data": [
    {"molecule": "ASO2: 5′-AAAGTATGTTTCTTCCACAC-3′ 2′-O-methoxyethyl phosphorothioate oligonucleotide; target in SMN2 intron 7 downstream of the ASO1 site (antisense eA*eA*eA*eG*eT*eA*eT*eG*eT*eT*eT*e[5mC]*eT*eT*e[5mC]*e[5mC]*eA*e[5mC]*eA*e[5mC])", "values": [
      {"measurement": "inhibition of SMN2 E7 inclusion, ASO2 combined with CPT", "setting": "[1]; HEK293T, 25 nM ASO2 in combination with 3 µM CPT 24 hr", "result": "stronger"},
      {"measurement": "effect on SMN2 E7 inclusion, agent alone", "setting": "[1]; HEK293T", "result": "inhibited SMN2 E7 inclusion as efficiently as the elongation inhibitor CPT"},
      {"measurement": "H3K9me2 marks along the SMN2 gene", "setting": "[2]", "result": "promoted H3K9 methylation"},
      {"measurement": "P-Ser2 RNAPII density", "setting": "[3]", "result": "higher"},
      {"measurement": "P-Ser5 RNAPII density", "setting": "[3]", "result": "higher"},
      {"measurement": "total RNAPII density", "setting": "[3]", "result": "higher"},
      {"measurement": "H3K9 dimethylation in control genes (same TAD: SERF1A; outside TAD: MYOD, GAPDH)", "setting": "[4]", "result": "neither ASO1 nor ASO2 promoted H3K9 dimethylation"}
    ]},
    {"molecule": "nusinersen: TCACTTTCATAATGCTGG; 2′-O-(2-methoxyethyl) phosphorothioate-modified antisense-oligonucleotide drug targeting a splicing silencer in SMN2 intron 7 (all 2'-MOE, all phosphorothioate, methylation of C not given here)", "values": [
      {"measurement": "inclusion of SMN2 E7", "setting": "SMN2 E7", "result": "nearly full inclusion of SMN2 E7"}
    ]},
    {"molecule": "CC(/C=C/C(=O)NO)=C\\[C@@H](C)C(=O)c1ccc(N(C)C)cc1", "note": "[TSA, trichostatin A]", "values": [
      {"measurement": "effect of the drug on ASO1's effect on E7 inclusion", "setting": "[1]", "result": "dose-dependent"},
      {"measurement": "effect on SMN2 E7 inclusion, agent alone", "setting": "[1]; HEK293T", "result": "less potent than ASO1 in upregulating E7 inclusion"},
      {"measurement": "effect of hnRNPA1/A2 depletion in promoting E7 inclusion upon HDAC inhibitor treatment", "setting": "[1]; HEK293T, 25 nM each si-hnRNPA1 and si-hnRNPA2, no ASO1, 3 µM TSA or 10 mM VPA 24 hr", "result": "stronger"},
      {"measurement": "cooperative effect of TSA with ASO1 on E7 inclusion", "setting": "[5]", "result": "reproducible"},
      {"measurement": "cooperative effect of TSA with ASO1 on E7 inclusion", "setting": "[6]", "result": "reproducible"},
      {"measurement": "levels of SMN2 pre-mRNA (promoter-proximal amplicon)", "setting": "SMN2 pre-mRNA", "result": "increased the levels of SMN2 pre-mRNA"}
    ]},
    {"molecule": "CC[C@@]1(O)C(=O)OCc2c1cc1n(c2=O)Cc2cc3ccccc3nc2-1", "note": "[CPT, camptothecin]", "values": [
      {"measurement": "effect on SMN2 E7 inclusion, agent alone", "setting": "[1]; HEK293T", "result": "promoted E7 skipping"}
    ]},
    {"molecule": "Nc1ncn([C@@H]2O[C@H](CO)[C@@H](O)[C@H]2O)c(=O)n1", "note": "[5-AZA, 5-aza cytidine]", "values": [
      {"measurement": "effect of the drug on ASO1's effect on E7 inclusion", "setting": "[1]", "result": "enhanced the effects of ASO1 as effectively as the HDAC inhibitors"},
      {"measurement": "effect on SMN2 E7 inclusion, agent alone", "setting": "[1]; HEK293T", "result": "no effect per se on E7 inclusion"}
    ]}
  ]
}
